{"source": "patent US20090180958A1", "about": "“Diagnostic and therapeutic agents” (Karyon-CTT Ltd., priority 2005, published 2009)", "key": {"[1]": {"test_system": "A549, NCI-H23, NCI-H520, NCI-H460, C8161/M1, HeLa, NIH3T3, E10V, SVEC4-10 cell lines", "experiment": "Cytotoxicity assay (MTT)", "format": "cell-based", "conditions": "7.5 μg/ml, after 1 h treatment; positive control", "description": "In this assay cell lines were exposed to two different concentrations (50 μg/and 500 μg/ml) of IS257 targeting unit (described in Example 3) for two to three days to test the toxicity of the peptides. The measurement of cell viability was done with MTT (Thiazolyl blue, Sigma M-5655 ) tetrazolium salt. MTT is cleaved to water-insoluble formazan dye by the “succinate-tetrazolium reductase” system which is active only in viable cells. After formazan was solubilized by 10% SDS-0.01 M HCl, it was quantified in an ELISA spectrometer (ThermoLabsystems Multiscan EX) at 560 nm. CuSAO2 [trans-bis(salicylaldoximato) copper(II)] (Elo HO, Lumme PO., 1985) 7.5 μg/ml was used as a positive control for 100% toxicity.\nProcedure. Cells were trypsinized from the cell culture dish (ø9 cm) with 1 ml of TE for 1-5 minutes and moved to a 50 ml Falcon tube. […]\nThen 40 μl of IS257 targeting unit in appropriate medium were added to the wells in two concentrations, so that final concentrations were 50 μg/ml and 500 μg/ml, and the volume of the wells was raised back to 100 μl. […] The next day the cell morphology was analyzed with a microscope. […]\nThe next day, the MTT assay described above was performed. The viable count (v.c.) was calculated as:\nAverage toxicated cell absorbance−Average DMEM absorbance=Viable count Average living cell absorbance−Average DMEM absorbance […]"}, "human lung tumor tissue": {"test_system": "human lung tumor tissue", "conditions": "enriched peptide sequences collected from ex vivo panning rounds four to six", "from_the_text": "Phage display libraries. Standard procedures according to Smith and Scott (1993) were used. Phage display libraries used for screening of clinical samples were cloned in fUSE5 vectors and were of the structure X7 and X10, thus they were linear containing seven or ten random amino acids. The libraries were used separately or as a mixture. The E. coli strain K91kan was used as host for phage amplification.\nSubtractional panning. Bio-panning was started with depletion of phage clones binding to normal lung. Normal lung tissue taken from surgical lung resection, removed during dissection of tumor, was placed in ice cold DMEM (Dulbecco's medium) containing protease inhibitors (PI); 10 mM PMSF ([…]), Aprotinin (10 mg/ml) Leupeptin (10 mg/ml). Tissue samples were minced with a razor blade in a small cell culture plate in 1 ml of DMEM-PI. The samples were transferred to an eppendorf tube and washed with 1 ml DMEM-PI.\nSamples were centrifuged at 4000 rpm for 5 min and were then incubated with 10^10 transforming units (TU) of phage (from one or more peptide libraries) in 1 ml DMEM-PI at 25° C. for 45 min. After this the samples were washed three times with DMEM-PI containing 1% BSA (bovine serum albumin).\nPhage display on clinical tumor samples. Tissue samples were surgically removed from primary tumors of non-small cell lung cancer patients and placed in ice DMEM-PI. Part of sample was taken for pathological examination. The type and nature of the tumor samples were first verified as being NSCLC. After that, specification of subtype of NSCLC and its stage was done by pathologists.\nTissue samples were minced with a razor blade in a small cell culture plate in 1 ml of DMEM containing protease inhibitors. The samples were transferred to an eppendorf tube and washed with 1 ml DMEM-PI.\nSamples were centrifuged at 4000 rpm for 5 min and were then incubated with 10^10 TU of phage (from one or more peptide libraries) in iml DMEM-PI at 25° C. for 15 min. After this the samples were washed three times with DMEM-PI containing 1% BSA (bovine serum albumin).\n1 ml K91kan bacteria, OD600: 1-1.5, in LB containing 100 μg/ml kanamycin (kan) were infected with the washed pellet containing selectively attached phage particles at 25° C. for 25 min. After infection volume was increased to 2 ml with LB containing 100 μg/ml kan.\nThen infected bacteria were plated on LB agar plates containing 40 μg/ml tetracycline (tet) as follows: Two parallel plates of three dilutions (1:50, 1:500, 1:5000) and the rest of the above K91kan culture in 200 μl aliquots. The plates were incubated overnight at +37° C.\nThe following day 24-48 colonies were picked from the LBtet plates into 96-well micro-plates for sequencing of the phage DNA. Alternatively the clones were stored for later analysis at −20° C.\nMonitoring of enrichment of peptides."}, "[2]": {"test_system": "NIH3T3, mouse fibroblast cell line", "conditions": "wells coated at 30 μg/ml; 75000 cells, 30 minutes at 37° C.; control cell line NIH3T3", "description": "(§1) Preparation of plates for assays. Wells of Reacti-Bind Maleimide activated clear strip plate (Pierce, Prod#. 15150) were coated with targeting agents of this invention at a concentration of 30 μg/ml. The incubation was carried out of overnight at 20° C. The binding buffer containing unbound peptide was removed from the wells.\n(§2) The wells were blocked with blocking buffer (1.0% BSA, 0.05% Tween20 in phosphate buffer saline (PBS) pH 7.0. PBS was prepared as follows: […] of NaCl, 1 g of KCl, 7 g of Na2HPO4×2H2O and 1 g of KH2PO4 were dissolved to 1000 ml of deionized H2O). Blank wells as controls were prepared by treating empty wells with blocking buffer. The plates were incubated 1 hour 30 min at 20° C.\n(§3) After incubation the plate was washed three times with PBS. Cell binding assays. 75000 cells in volume of 150 μl of medium were added into coated wells and were incubated for 30 minutes at 37° C. After cell binding, the wells were washed with PBS for 30 minutes. Detection of targeting agent bound cells were based on the MTT assay (described in detail in Example 23, Cytotoxicity). 10 μl of MTT reagent and 90 μl of medium were added to the wells. The plate was incubated for three hours at +37° C. After the incubation, 100 μl of lysis buffer was added to the wells and let to incubated o/n 37° C. On following day the absorbance of plate was measured at 560 nm with ELISA-reader (ThermoLabsystems, multiskan EX).\n(§4) Cell lines NCI-H23, NCI-H520, A549, HeLa and NIH3T3 (described in Example 18) and targeting agents HP199, HP201 and HP205 (described in Examples 5, 6, 17) were used in the cell binding.\n(§5) The results are shown as measured absorbance at 560 nm."}, "NSCLC cell line A549": {"test_system": "NSCLC cell line A549", "conditions": "wells coated at 30 μg/ml, 75000 cells, 30 minutes at 37° C.", "description": "as §1, §2, §3, §4, §5"}, "NSCLC cell line NCI-H23": {"test_system": "NSCLC cell line NCI-H23", "conditions": "wells coated at 30 μg/ml, 75000 cells, 30 minutes at 37° C.", "description": "as §1, §2, §3, §4, §5"}, "NSCLC cell line NCI-H520": {"test_system": "NSCLC cell line NCI-H520", "conditions": "wells coated at 30 μg/ml, 75000 cells, 30 minutes at 37° C.", "description": "as §1, §2, §3, §4, §5"}, "[3]": {"test_system": "PASMC, human primary pulmonary artery smooth muscle cell line", "conditions": "wells coated at 30 μg/ml; 75000 cells, 30 minutes at 37° C.; control cell line PASMC", "description": "as §1, §2, §3, §4, §5"}, "A549 cells": {"test_system": "A549 cells", "experiment": "Fluorescent targeting agent staining of fixed cells", "format": "cell-based, human", "conditions": "50 μg/ml in PBS, pH 7.4; methanol-fixed A549 cells", "protocol": "(§8) A549 cells and HeLa cells (described in Example 18) were grown on glass slides, washed with PBS and then fixed with methanol. The fluorescent targeting agent F5M-A49 (described in Example 10) was used to stain these cells as follows: Cells were first blocked with blocking buffer (1.0% BSA, 0.05% Tween20 in PBS, pH 7.4) for one hour at 20° C. The cells on the glass slides were incubated with 20 μl of F5M-A49 targeting agent (50 μg/ml in PBS, pH 7.4). As control, binding of F5M-A49 was competed with 20 μl of IS257 targeting unit (free peptide described in Example 3), 500 μg/ml in PBS, pH 7.4) prior to addition of the targeting agent. As negative controls, cells not incubated with any targeting agent were used. After the staining the cells were mounted on object glasses with mountex (Histolab Products Ltd). After this cells were viewed under a fluorescent microscope (Carl Zeiss Microscopy, Jena, Germany)."}, "HeLa cells": {"test_system": "HeLa cells", "conditions": "50 μg/ml in PBS, pH 7.4; methanol-fixed HeLa cells", "protocol": "as §8"}, "HeLa": {"test_system": "HeLa", "conditions": "5 pM, 30 min at 37° C.; control cell line HeLa", "description": "(§6) 5000 cells, A549, NCI-H23, NCI-H520, NCI-H460, and control cells PASMC and HeLa (described in Example 18), are grown in multi-well plates, according to the conditions described in Example 18.\n(§7) After 30 min of incubation cells are washed 5 times with PBS. PBS is removed and cells are lysed by shaking in Inducer Solution (Perkin-Elmer Ltd) for 15 min. After this, fluorescence is measured by time resolved fluorescence using a Victor III fluorometer (Perkin-Elmer Ltd)."}, "PASMC": {"test_system": "PASMC", "conditions": "5 pM, 30 min at 37° C.; control cell line PASMC", "description": "as §6, §7"}}, "data": [{"compound": "[Cu+2].[O-]c1ccccc1C=NO.[O-]c1ccccc1C=NO", "note": "[CuSAO2, trans-bis(salicylaldoximato) copper(II), reference compound]", "values": [{"measurement": "cell killing", "setting": "[1]", "value": 100, "unit": "%"}]}, {"compound": "ARAPGVMPTT", "values": [{"measurement": "Frequency", "setting": "human lung tumor tissue", "value": 2}]}, {"compound": "ARLPQVELSA", "values": [{"measurement": "Frequency", "setting": "human lung tumor tissue", "value": 3}]}, {"compound": "ARMPPRS", "values": [{"measurement": "Frequency", "setting": "human lung tumor tissue", "value": 2}]}, {"compound": "ARPPKGVNWT", "values": [{"measurement": "Frequency", "setting": "human lung tumor tissue", "value": 3}]}, {"compound": "ARRPKLD [Ala-Arg-Arg-Pro-Lys-Leu-Asp]", "values": [{"measurement": "Frequency", "setting": "human lung tumor tissue", "value": 22}]}, {"compound": "Ac-ARRPKLD-GAAG-PEG-G3-EAT [HP201]", "values": [{"measurement": "binding of cells to immobilized targeting agent (absorbance at 560 nm)", "setting": "[2]", "value": "do not"}, {"measurement": "binding of cells to immobilized targeting agent (absorbance at 560 nm)", "setting": "NSCLC cell line A549", "value": "bind selectively"}, {"measurement": "binding of cells to immobilized targeting agent (absorbance at 560 nm)", "setting": "NSCLC cell line NCI-H23", "value": "bind selectively"}, {"measurement": "binding of cells to immobilized targeting agent (absorbance at 560 nm)", "setting": "NSCLC cell line NCI-H520", "value": "bind selectively"}, {"measurement": "binding of cells to immobilized targeting agent (absorbance at 560 nm)", "setting": "[3]", "value": "do not"}]}, {"compound": "Ala-Asp-Gly-Ala-Ala-Arg-Arg-Pro-Lys-Leu-Asp-Gly-Ala-Ala-Gly-NH—CH2CH2—O—CH2CH2—O—CH2CH2—O—CH2—C(O)-Gly-Gly-Gly-NHCH2CH2SH [HP199]", "values": [{"measurement": "binding of cells to immobilized targeting agent (absorbance at 560 nm)", "setting": "[2]", "value": "do not"}, {"measurement": "binding of cells to immobilized targeting agent (absorbance at 560 nm)", "setting": "NSCLC cell line A549", "value": "bind selectively"}, {"measurement": "binding of cells to immobilized targeting agent (absorbance at 560 nm)", "setting": "NSCLC cell line NCI-H23", "value": "bind selectively"}, {"measurement": "binding of cells to immobilized targeting agent (absorbance at 560 nm)", "setting": "NSCLC cell line NCI-H520", "value": "bind selectively"}, {"measurement": "binding of cells to immobilized targeting agent (absorbance at 560 nm)", "setting": "[3]", "value": "do not"}]}, {"compound": "CH3C(O)-Ala-Arg-Arg-Pro-Lys-Leu-Asp-Gly-Ala-Ala-Gly-NH—(CH2)3—(O—CH2CH2)3—CH2—NH—C(O)CH2CH2—C(O)—NHCH2CH2S—C2H3(COOH)—C(O)—NH—(C20H11O5) [F5M-A49]", "values": [{"measurement": "staining of cells (fluorescent microscope)", "setting": "A549 cells", "value": "strong staining"}, {"measurement": "staining of cells (fluorescent microscope)", "setting": "HeLa cells", "value": "no staining"}]}, {"compound": "CH3C(O)-Ala-Arg-Arg-Pro-Lys-Leu-Asp-Gly-Ala-NHCH2CH2S-p-CH2CONH-benzyl-DTPA europium chelate [A48-Eu]", "values": [{"measurement": "binding of targeting agent to cells", "setting": "HeLa", "value": "no binding"}, {"measurement": "binding of targeting agent to cells", "setting": "PASMC", "value": "no binding"}]}, {"compound": "H-Ala-Asp-Gly-Ala-asp-Pro-Leu-Lys-Arg-Ala-Arg-Gly-Ala-Ala-Gly-NH-CH2CH2—O—CH2CH2—O—CH2CH2—O—CH2—C(O)-Gly3-NHCH2CH2SH [HP205, reference compound]", "values": [{"measurement": "binding of cells to immobilized targeting agent (absorbance at 560 nm)", "setting": "NSCLC cell line A549", "value": "do not bind"}, {"measurement": "binding of cells to immobilized targeting agent (absorbance at 560 nm)", "setting": "NSCLC cell line NCI-H23", "value": "do not bind"}, {"measurement": "binding of cells to immobilized targeting agent (absorbance at 560 nm)", "setting": "NSCLC cell line NCI-H520", "value": "do not bind"}]}, {"compound": "SRAPNSVQHD", "values": [{"measurement": "Frequency", "setting": "human lung tumor tissue", "value": 2}]}, {"compound": "SRAPVAP", "values": [{"measurement": "Frequency", "setting": "human lung tumor tissue", "value": 2}]}, {"compound": "SRLPSAGTFQ", "values": [{"measurement": "Frequency", "setting": "human lung tumor tissue", "value": 2}]}, {"compound": "SRNPGLLTVR", "values": [{"measurement": "Frequency", "setting": "human lung tumor tissue", "value": 2}]}]}
